Reference: patent publication US10316017B2, “COT modulators and methods of use thereof” (Gilead Sciences, Inc., priority 2015, dated 2019)

Legend:
[1] = system: TNFα production in LPS-stimulated human monocytes; assay: Cot Monocyte TNFα Cell Based Assay; conditions: Homo sapiens, Monocyte, TNFα in LPS-stimulated human monocytes; read-out: EC50 TNF
Outline: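 Human monocytes (5,000 cells/well) pretreated with compound for 1 hour at 37° C (0.5% DMSO), then stimulated with 50 pg/ml LPS for 4 hours. Total TNFα measured by TR-FRET after overnight antibody incubation at room temp, expressed as percent of control between unstimulated and stimulated cells.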

[2] = molecular target: T1, human Cot catalytic domain (30-397 amino acids) (Homo sapiens, UniProt P41279); assay: High Throughput Cot Biochemical Assay (KinEASE TR-FRET); conditions: Cot KinEASE TR-FRET (HTRF) biochemical assay, 400 μM ATP; read-out: IC50 HTRF
T1 construct: Purified recombinant human Cot catalytic domain (30-397 amino acids) was purchased from Cama Biosciences; purchased Cama Biosciences (so in the source)
Outline: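 Recombinant human Cot catalytic domain (aa 30-397), 5 nM, with 1 μM STK3 peptide and 400 μM ATP in MOPS pH 7.0 buffer with MgOAc, DTT, BSA, NP-40, glycerol, 0.1% DMSO. Phosphorylated XL665-peptide detected by Eu-[…] antibody TR-FRET.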

T1 sequence (P41279 30-397): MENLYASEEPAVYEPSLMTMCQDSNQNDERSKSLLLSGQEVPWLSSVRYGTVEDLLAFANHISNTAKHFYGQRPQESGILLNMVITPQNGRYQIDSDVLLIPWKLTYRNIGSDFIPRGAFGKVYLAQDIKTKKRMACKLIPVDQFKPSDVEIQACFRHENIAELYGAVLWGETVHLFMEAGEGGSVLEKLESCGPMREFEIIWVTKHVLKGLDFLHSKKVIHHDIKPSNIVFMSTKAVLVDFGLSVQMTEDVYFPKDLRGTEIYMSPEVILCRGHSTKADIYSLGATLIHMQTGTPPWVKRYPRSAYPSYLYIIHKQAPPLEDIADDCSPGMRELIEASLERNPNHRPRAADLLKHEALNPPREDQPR

SMILES | EC50 [1] [nM] | IC50 [2] [nM]
CC(F)(F)CNc1c(C#N)cnc2c(Cl)cc(N[C@@H](c3ccc(F)cc3)c3cn(C4CC4)nn3)cc12 [Example 349, (S)-8-chloro-6-(((1-cyclopropyl-1H-1,2,3-triazol-4-yl)(4-fluorophenyl)methyl)amino)-4-((2,2-difluoropropyl)amino)quinoline-3-carbonitrile] | 687 | 131
CC(C)(CNc1c(C#N)cnc2c(Cl)cc(N[C@@H](c3ccc(F)cc3)c3cn(C4CC4)nn3)cc12)c1ccccc1 [Example 350, (S)-8-chloro-6-(((1-cyclopropyl-1H-1,2,3-triazol-4-yl)(4-fluorophenyl)methyl)amino)-4-((2-methyl-2-phenylpropyl)amino) quinoline-3-carbonitrile] | 387 | 9
[2H][C@](Nc1cc(C#N)c2ncc(C#N)c(Nc3cnc(F)c(F)c3)c2c1)(c1ccc(F)cc1)c1cn(C2CC2)nn1 [Example 351, (S)-6-(((1-cyclopropyl-1H-1,2,3-triazol-4-yl)(4-fluorophenyl)methyl-d)amino)-4-((5,6-difluoropyridin-3-yl)amino)quinoline-3,8-dicarbonitrile] | 206 | 6
[2H][C@](Nc1cc(Cl)c2ncc(C#N)c(Nc3cnc(F)c(F)c3)c2c1)(c1ccc(F)cc1)c1c[nH]nn1 [Example 352, (S)-8-chloro-4-((5,6-difluoropyridin-3-yl)amino)-6-(((4-fluorophenyl) (1H-1,2,3-triazol-4-yl)methyl-d)amino) quinoline-3-carbonitrile] | 1290 | 21
N#Cc1cnc2c(Cl)cc(N[C@@H](c3ccc(F)cc3)c3c[nH]nn3)cc2c1Nc1cncc(F)c1 [Example 353, (S)-8-chloro-6-(((4-fluorophenyl)(1H-1,2,3-triazol-4-yl)methyl)amino)-4-((5-fluoropyridin-3-yl)amino)quinoline-3-carbonitrile] | 3180 | 104
[2H]C(Nc1cc(Cl)c2ncc(C#N)c(N[C@H](CC)c3ccccc3)c2c1)(c1ccc(F)cc1)c1cn(C2CC2)cn1 (stereo partly drawn) [Example 354, 8-chloro-6-(((1-cyclopropyl-1H-imidazol-4-yl)(4-fluorophenyl)methyl-d)amino)-4-(((R)-1-phenylpropyl)amino) quinoline-3-carbonitrile] | 689 | 86
[2H]C(Nc1cc(Cl)c2ncc(C#N)c(Nc3cnc(F)c(F)c3)c2c1)(c1ccc(F)cc1)c1cn(C2CC2)cn1 (stereo not drawn) [Example 355, 8-chloro-6-(((1-cyclopropyl-1H-imidazol-4-yl)(4-fluorophenyl)methyl-d)amino)-4-((5,6-difluoropyridin-3-yl)amino)quinoline-3-carbonitrile] | 4660 | 121
[2H][C@@](Nc1cc(Cl)c2ncc(C#N)c(NC3(c4ccccc4)CC3)c2c1)(c1cn(C2CC2)nn1)c1ccccc1Cl [Example 356] | 6660 | 550
[2H][C@@](Nc1cc(Cl)c2ncc(C#N)c(N[C@H](CC)c3ccccc3)c2c1)(c1cn(C2CC2)nn1)c1ccccc1Cl [Example 357, 8-chloro-6-(((S)-(2-chlorophenyl)(1-cyclopropyl-1H-1,2,3-triazol-4-yl)methyl-d)amino)-4-(((R)-1-phenylpropyl)amino) quinoline-3-carbonitrile] | 522 | 20
[2H][C@@](Nc1cc(Cl)c2ncc(C#N)c(Nc3cnc(F)c(F)c3)c2c1)(c1cn(C2CC2)nn1)c1ccccc1Cl [Example 358, (S)-8-chloro-6-(((2-chlorophenyl)(1-cyclopropyl-1H-1,2,3-triazol-4-yl)methyl-d)amino)-4-((5,6-difluoropyridin-3-yl)amino)quinoline-3-carbonitrile] | 673 | 12
[2H][C@](Nc1cc(Cl)c2ncc(C#N)c(Nc3cnc(F)c(F)c3)c2c1)(c1ccc(F)cc1)c1cn(C2CS(=O)(=O)C2)nn1 [Example 359, (S)-8-chloro-4-((5,6-difluoropyridin-3-yl)amino)-6-(((1-(1,1-dioxidothietan-3-yl)-1H-1,2,3-triazol-4-yl)(4-fluorophenyl)methyl-d)amino)quinoline-3-carbonitrile] | 2260 | 53
[2H][C@](Nc1cc(Cl)c2ncc(C#N)c(Nc3cnc(F)c(F)c3)c2c1)(c1ccc(F)cc1)c1cn([C@@H](C)CF)nn1 [Example 360, 8-chloro-4-((5,6-difluoropyridin-3-yl)amino)-6-(((S)-(4-fluorophenyl)(1-((S)-1-fluoropropan-2-yl)-1H-1,2,3-triazol-4-yl)methyl-d)amino)quinoline-3-carbonitrile] | 423 | 21
CC(C)n1cc([C@@H](Nc2cc(Cl)c3ncc(C#N)c(NC(CC#N)c4ccccc4)c3c2)c2ccc(F)cc2)nn1 (stereo partly drawn) [Example 362, 8-chloro-4-((2-cyano-1-phenylethyl)amino)-6-(((S)-(4-fluorophenyl)(1-isopropyl-1H-1,2,3-triazol-4-yl)methyl)amino)quinoline-3-carbonitrile] | 83 | 5
CC(C)n1cc([C@@H](Nc2cc(Cl)c3ncc(C#N)c(N[C@H](c4ccccc4)C(F)(F)F)c3c2)c2ccc(F)cc2)nn1 [Example 363, 8-chloro-6-(((S)-(4-fluorophenyl)(1-isopropyl-1H-1,2,3-triazol-4-yl)methyl)amino)-4-(((R)-2,2,2-trifluoro-1-phenylethyl)amino)quinoline-3-carbonitrile] | > 10000 | 874
CC(C)n1cc([C@@H](Nc2cc(Cl)c3ncc(C#N)c(N[C@@H](c4ccccc4)C(F)(F)F)c3c2)c2ccc(F)cc2)nn1 [Example 364, 8-chloro-6-(((S)-(4-fluorophenyl)(1-isopropyl-1H-1,2,3-triazol-4-yl)methyl)amino)-4-(((S)-2,2,2-trifluoro-1-phenylethyl)amino)quinoline-3-carbonitrile] | 631 | 48
CC[C@@H](Nc1c(C#N)cnc2c(Cl)cc(N[C@@H](c3ccc(F)cc3)c3cn(C(C)C)nn3)cc12)c1ccc(C)cc1 [Example 365, 8-chloro-6-(((S)-(4-fluorophenyl)(1-isopropyl-1H-1,2,3-triazol-4-yl)methyl)amino)-4-(((R)-1-(p-tolyl)propyl)amino)quinoline-3-carbonitrile] | 9330 | 868
CC[C@@H](Nc1c(C#N)cnc2c(Cl)cc(N[C@@H](c3ccc(F)cc3)c3cn(C(C)C)nn3)cc12)c1ccccc1C [Example 366, 8-chloro-6-(((S)-(4-fluorophenyl)(1-isopropyl-1H-1,2,3-triazol-4-yl)methyl)amino)-4-(((R)-1-(o-tolyl)propyl)amino)quinoline-3-carbonitrile] | 1300 | 110
N#Cc1cnc2c(Cl)cc(N[C@@H](c3ccc(F)cc3)c3c[nH]nn3)cc2c1Nc1ccc(F)cc1F [Example 367, (S)-8-chloro-4-((2,4-difluorophenyl)amino)-6-(((4-fluorophenyl)(1H-1,2,3-triazol-4-yl)methyl)amino)quinoline-3-carbonitrile] | 3850 | 297
N#Cc1cnc2c(Cl)cc(N[C@@H](c3ccc(F)cc3)c3c[nH]nn3)cc2c1Nc1ccc(F)c(F)c1 [Example 368, (S)-8-chloro-4-((3,4-difluorophenyl)amino)-6-(((4-fluorophenyl)(1H-1,2,3-triazol-4-yl)methyl)amino)quinoline-3-carbonitrile] | 1130 | 50
[2H][C@](Nc1cc(Cl)c2ncc(C#N)c(Nc3cnc(F)c(F)c3)c2c1)(c1cccc(C#N)c1)c1cn(C2CC2)nn1 [Example 369, (S)-8-chloro-6-(((3-cyanophenyl)(1-cyclopropyl-1H-1,2,3-triazol-4-yl)methyl-d)amino)-4-((5,6-difluoropyridin-3-yl)amino)quinoline-3-carbonitrile] | 93 | 4
[2H][C@](Nc1cc(Cl)c2ncc(C#N)c(Nc3cnc(F)c(F)c3)c2c1)(c1cccc(C#N)c1)c1c[nH]nn1 [Example 370, (S)-8-chloro-6-(((3-cyanophenyl)(1H-1,2,3-triazol-4-yl)methyl-d)amino)-4-((5,6-difluoropyridin-3-yl)amino)quinoline-3-carbonitrile] | 417 | 5
[2H][C@](Nc1cc(Cl)c2ncc(C#N)c(Nc3cnc(F)c(F)c3)c2c1)(c1ccc(F)cc1)c1cn(C2(C(F)(F)F)CC2)nn1 [Example 371, (S)-8-chloro-4-((5,6-difluoropyridin-3-yl)amino)-6-(((4-fluorophenyl)(1-(1-(trifluoromethyl)cyclopropyl)-1H-1,2,3-triazol-4-yl)methyl-d)amino)quinoline-3-carbonitrile] | 877 | 154
N#Cc1cc([C@H](Nc2cc(Cl)c3ncc(C#N)c(Nc4cnc(F)c(F)c4)c3c2)c2c[nH]nn2)ccc1F [Example 372, (S)-8-chloro-6-(((3-cyano-4-fluorophenyl)(1H-1,2,3-triazol-4-yl)methyl)amino)-4-((5,6-difluoropyridin-3-yl)amino)quinoline-3-carbonitrile] | 771 | 11
N#Cc1cnc2c(Cl)cc(N[C@@H](c3ccc(F)cc3)c3c[nH]nn3)cc2c1Nc1cccnc1F [Example 373, (S)-8-chloro-6-(((4-fluorophenyl)(1H-1,2,3-triazol-4-yl)methyl)amino)-4-((2-fluoropyridin-3-yl)amino)quinoline-3-carbonitrile] | 7520 | 3010
